Compound `O=C(N[C@H](Cc1ccc(C(F)(F)F)c(F)c1)[C@@H](O)c1ccc(F)cc1)c1ccc(F)c2ccccc12` (racemic) [Example 156, N-((1RS,2SR)-2-(4-fluorophenyl)-1-((3-fluoro-4-(trifluoromethyl)phenyl)methyl)-2-hydroxyethyl)-4-fluoro-1-naphthalenecarboxamide] had a melting point of 212 to 213 °C.
The same measure for `O=C(CCc1ccccc1)N[C@H](Cc1ccc(C(F)(F)F)c(F)c1)[C@@H](O)c1ccc(F)cc1` (racemic) [Example 157, N-((1RS,2SR)-2-(4-fluorophenyl)-1-((3-fluoro-4-(trifluoromethyl)phenyl)methyl)-2-hydroxyethyl)-3-phenylpropanamide]: 126 to 127 °C.
The value for `O=C(N[C@H](Cc1cccc(Oc2ccccc2)c1)[C@@H](O)c1ccc(F)cc1)c1ccc(F)c2ccccc12` (racemic) [Example 160, 4-fluoro-N-((1RS,2SR)-2-(4-fluorophenyl)-2-hydroxy-1-((3-(phenyloxy)phenyl)methyl)ethyl)-1-naphthalenecarboxamide] was 120 to 121 °C.
As to `O=C(N[C@H](Cc1ccc(C(F)F)cc1)[C@@H](O)c1ccc(F)cc1)c1ccc(F)c2ccccc12` (racemic) [Example 165, N-[(1RS,2SR)-1-[4-(difluoromethyl)benzyl]-2-(4-fluorophenyl)-2-hydroxyethyl]-4-fluoronaphthalene-1-carboxamide], the melting point was in the range of 212 to 213 °C.
`CC(F)(F)c1ccc(C[C@@H](NC(=O)c2ccc(F)c3ccccc23)[C@@H](O)c2ccc(F)cc2)cc1` (racemic) [Example 166, N-[(1RS,2SR)-1-[4-(1,1-difluoroethyl)benzyl]-2-(4-fluorophenyl)-2-hydroxyethyl]-4-fluoronaphthalene-1-carboxamide] came in with a melting point of 220 to 221 °C.
With `O=C(N[C@H](Cc1ccc2c(c1)OC(F)(F)O2)[C@@H](O)c1ccc(F)cc1)c1ccc(F)c2ccccc12` (racemic) [Example 167, N-[(1RS,2SR)-1-[(2,2-difluoro-1,3-benzodioxol-5-yl)methyl]-2-(4-fluorophenyl)-2-hydroxyethyl]-4-fluoronaphthalene-1-carboxamide], the melting point was in the range of 219 to 220 °C.
The same measure for `CC(C)(C)OC(=O)N[C@H](Cc1cnc(C(F)(F)F)s1)[C@@H](O)c1ccc(F)cc1` (racemic) [Example 168, tert-butyl N-[(1RS,2SR)-2-(4-fluorophenyl)-2-hydroxy-1-[[2-(trifluoromethyl)-1,3-thiazol-5-yl]methyl]ethyl]carbamate]: 137 to 138 °C.
In the case of `O=C(N[C@H](Cc1cnc(C(F)(F)F)s1)[C@@H](O)c1ccc(F)cc1)c1ccc(F)c2ccccc12` (racemic) [Example 169, 4-fluoro-N-[(1RS,2SR)-2-(4-fluorophenyl)-2-hydroxy-1-[[2-(trifluoromethyl)-1,3-thiazol-5-yl]methyl]ethyl]naphthalene-1-carboxamide], the melting point lay within 197 to 198 °C.
The same measure for `O=C(N[C@H](Cc1cccc(OCC(F)(F)F)c1)[C@@H](O)c1ccc(F)cc1)c1ccc(F)c2ccccc12` (racemic) [Example 170, N-((1RS,2SR)-2-(4-fluorophenyl)-2-hydroxy-1-((3-(2,2,2-trifluoroethoxy)phenyl)methyl)ethyl)-4-fluoro-1-naphthalenecarboxamide]: 192 to 193 °C; for `O=C(N[C@H](Cc1cccc(OCC(F)(F)C(F)F)c1)[C@@H](O)c1ccc(F)cc1)c1ccc(F)c2ccccc12` (racemic) [Example 172, N-((1RS,2SR)-2-(4-fluorophenyl)-2-hydroxy-1-((3-(2,2,3,3-tetrafluoropropyloxy)phenyl)methyl)ethyl)-4-fluoro-1-naphthalenecarboxamide]: 160 to 161 °C; for `O=C(N[C@H](Cc1ccc(C(F)(F)F)cc1)[C@@H](O)c1ccccc1)c1ccc(F)c2ccccc12` (racemic) [Example 174, 4-fluoro-N-((1RS,2SR)-2-hydroxy-2-phenyl-1-((4-(trifluoromethyl)phenyl)methyl)ethyl)-1-naphthalenecarboxamide]: 217 to 218 °C.
Compound `O=C(CCc1ccccc1)N[C@H](Cc1ccc(C(F)(F)F)cc1)[C@@H](O)c1ccccc1` (racemic) [Example 175, N-((1RS,2SR)-2-hydroxy-2-phenyl-1-((4-(trifluoromethyl)phenyl)methyl)ethyl)-3-phenylpropanamide] gave a melting point of 147 to 148 °C.
On to `O=C(N[C@H](Cc1ccc(C(F)(F)F)cc1)[C@@H](O)c1cccc(F)c1)c1ccc(F)c2ccccc12` (racemic) [Example 176, 4-fluoro-N-((1RS,2SR)-2-(3-fluorophenyl)-2-hydroxy-1-((4-(trifluoromethyl)phenyl)methyl)ethyl)-1-naphthalenecarboxamide], for which the melting point lay in the range of 200 to 201 °C.
As for `O=C(CCc1ccccc1)N[C@H](Cc1ccc(C(F)(F)F)cc1)[C@@H](O)c1cccc(F)c1` (racemic) [Example 178, N-((1RS,2SR)-2-(3-fluorophenyl)-2-hydroxy-1-((4-(trifluoromethyl)phenyl)methyl)ethyl)-3-phenylpropanamide], the melting point lay within 151 to 152 °C.
Turning to `O=C(N[C@H](Cc1ccc(C(F)(F)F)cc1)[C@@H](O)c1ccccc1F)c1ccc(F)c2ccccc12` (racemic) [Example 179, 4-fluoro-N-((1RS,2SR)-2-(2-fluorophenyl)-2-hydroxy-1-((4-(trifluoromethyl)phenyl)methyl)ethyl)-1-naphthalenecarboxamide], the melting point lay within 190 to 191 °C.
Compound `O=C(CCc1ccccc1)N[C@H](Cc1ccc(C(F)(F)F)cc1)[C@@H](O)c1ccccc1F` (racemic) [Example 180, N-((1RS,2SR)-2-(2-fluorophenyl)-2-hydroxy-1-((4-(trifluoromethyl)phenyl)methyl)ethyl)-3-phenylpropanamide] returned a melting point of 124 to 125 °C.
Take `O=C(N[C@H](Cc1ccc(C(F)(F)F)cc1)[C@@H](O)c1ccc(F)cc1F)c1ccc(F)c2ccccc12` (racemic) [Example 181, N-((1RS,2SR)-2-(2,4-difluorophenyl)-2-hydroxy-1-((4-(trifluoromethyl)phenyl)methyl)ethyl)-4-fluoro-1-naphthalenecarboxamide]: the melting point is 194 to 195 °C.
The compound `O=C(CCc1ccccc1)N[C@H](Cc1ccc(C(F)(F)F)cc1)[C@@H](O)c1ccc(F)cc1F` (racemic) [Example 182, N-((1RS,2SR)-2-(2,4-difluorophenyl)-2-hydroxy-1-((4-(trifluoromethyl)phenyl)methyl)ethyl)-3-phenylpropanamide] came in with a melting point of 126 to 127 °C.
`O=C(N[C@H](Cc1ccc(C(F)(F)F)cc1)[C@@H](O)c1ccc(F)c(F)c1)c1ccc(F)c2ccccc12` (racemic) [Example 183, N-((1RS,2SR)-2-(3,4-difluorophenyl)-2-hydroxy-1-((4-(trifluoromethyl)phenyl)methyl)ethyl)-4-fluoro-1-naphthalenecarboxamide] displayed a melting point of 197 to 198 °C.
The same measure for `O=C(CCc1ccccc1)N[C@H](Cc1ccc(C(F)(F)F)cc1)[C@@H](O)c1ccc(F)c(F)c1` (racemic) [Example 184, N-((1RS,2SR)-2-(3,4-difluorophenyl)-2-hydroxy-1-((4-(trifluoromethyl)phenyl)methyl)ethyl)-3-phenylpropanamide]: 114 to 115 °C.

The record behind these values is patent US6982348B2, “Aminoethanol derivatives” (Takeda Pharmaceutical Company Limited, priority 2001, dated 2006).
